# Source: PMC7525093, “Bis-Quinolinium Cyclophane Blockers of SK Potassium Channels Are Antagonists of M3 Muscarinic Acetylcholine Receptors” (Frontiers in Pharmacology, 2020)
# Counter-ions that a name gives are not always drawn. Like-named read-outs stand apart in the source and are kept apart here. Ends that are not written are not given here.
# Experiments:
# [1] = target: T1, human M3 muscarinic acetylcholine receptor (Homo sapiens, UniProt P20309); test: R-CEPIAer ER calcium assay of Gq-coupled receptor activation, M3-transfected CHO-K1 cells; assay type: cell-based; settings: for Hill slope of inhibition curve, M3 receptor: Hill equation fit
# T1 construct: host or cells: CHO-K1 cells, stably transfected
# T1 sequence (P20309 whole entry): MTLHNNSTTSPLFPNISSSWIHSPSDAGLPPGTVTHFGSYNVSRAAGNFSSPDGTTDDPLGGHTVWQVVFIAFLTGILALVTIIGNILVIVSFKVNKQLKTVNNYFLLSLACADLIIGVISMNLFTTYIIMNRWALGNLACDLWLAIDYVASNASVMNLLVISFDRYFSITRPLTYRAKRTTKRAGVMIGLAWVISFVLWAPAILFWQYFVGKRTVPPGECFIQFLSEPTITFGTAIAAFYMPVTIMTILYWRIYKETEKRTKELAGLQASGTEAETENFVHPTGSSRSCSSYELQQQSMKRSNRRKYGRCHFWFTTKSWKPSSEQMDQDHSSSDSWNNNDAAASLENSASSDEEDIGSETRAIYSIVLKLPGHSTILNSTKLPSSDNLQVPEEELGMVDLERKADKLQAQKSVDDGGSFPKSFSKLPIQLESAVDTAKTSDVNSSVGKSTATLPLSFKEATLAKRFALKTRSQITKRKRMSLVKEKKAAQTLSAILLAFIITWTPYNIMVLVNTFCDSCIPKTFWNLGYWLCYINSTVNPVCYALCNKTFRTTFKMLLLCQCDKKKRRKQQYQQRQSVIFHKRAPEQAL
# Procedure: The binding of antagonists to Gq-coupled receptors was determined by measuring IP3-mediated calcium depletion from the endoplasmic reticulum (ER). This was accomplished using CHO-K1 cells stably transfected with human M3 muscarinic acetylcholine receptor (CEM3000000, cDNA Resource Center, Bloomsburg University) and R-CEPIAer, a low affinity ER-targeted calcium indicator fluorescent protein ([Suzuki et al., 2014]). R-CEPIAer reporting of ER calcium concentration was assessed using 564 nm excitation light (>590 long-pass emission) at 20 second intervals on a Nikon swept-field confocal microscope using slit-scan mode, 2x2 Binning, and 100 millisecond frames. F/Fmax was fluorescence intensity normalized to maximal fluorescence intensity during the experiment. The response of cells to Gq-coupled receptor agonist were measured as the change in F/Fmax (ΔF/Fmax) from preagonist value to fluorescence minimum during agonist application (that occurs by IP3-mediated ER calcium depletion). […] Perfusion of each agonist application was for 2 min, while the antagonist overlapped and preceded the second agonist application by 3 min. […] IC50 was calculated by assaying fractional inhibition using a dose-response of antagonist concentrations (i.e. Figure 1D ). For assays of other receptors such as the M1 and M5 muscarinic receptors, H1 histamine and P2Y1 purinergic receptors, these receptors were transiently co-transfected with the pCMV R-CEPIAer plasmid (a gift from Masamitsu Iino (Addgene plasmid # 58216; http://n2t.net/addgene:58216; RRID : Addgene_58216)) into CHO cells using polyethylenimine [according to previous methods ([Longo et al., 2013])]. IC50 and EC50 values were estimated by fitting the dose-response relationship to a Hill equation.
# To obtain a pKB using a Schild analysis ([Arunlakshana and Schild, 1959]), the acetylcholine EC50 was measured in the absence of UCL1684 and EC50′ measured in the presence of increasing concentrations of UCL1684. These values were used to calculate a dose ratio (DR = EC50′/EC50) for each UCL1684 concentration. The log(DR − 1) was plotted vs. log UCL1684 concentrations and fit to a linear equation where the theoretical X-intercept was used to estimate a pKB.
# mouse trachea = test: Isometric tracheal tension measurement (organ bath); settings: for IC50: cumulative concentrations, Hill function, read-out: IC50, relaxation of carbachol-precontracted trachea; for Relaxation response of trachea: TrpM channel blocker
# Procedure: Mice used in these studies were BALB/C mice from Jackson Labs. All animal procedures were reviewed and approved by the University of Texas Health Science Center at San Antonio Institutional Animal Care and Use Committee. For tracheal constriction studies, animals were deeply anesthetized with isoflurane and then sacrificed by cervical dislocation. Isometric tracheal contraction measurements were performed as previously described ([Semenov et al., 2012]). Trachea were removed and surrounding tissues dissected in ice-cold physiologic saline solution (PSS) consisting of 119 mM NaCl, 4.7 mM KCl, 2.0 mM CaCl2, 1.0 mM KH2PO4, 1.17 mM MgSO4, 18 mM NaHCO3, 0.026 mM EDTA, 11 mM glucose, and 12.5 mM sucrose. Trachea were cut below the pharynx and above the primary bronchus bifurcation. Two metal wires, attached to a force transducer and micrometer (Radnoti, LLC), were threaded into the lumen of the trachea. Trachea were placed into an oxygenated organ bath (95% O2, 5% CO2), at 37°C, pH 7.35 (after bubbling with 95% O2–5% CO2). Tracheal resting tension was readjusted to 1 gram over 1 h and then challenged with 67 mM potassium PSS with NaCl adjusted to 56.7 mM to maintain proper osmolarity (KPS). Trachea were challenged two or more times until reproducible contractile responses were achieved. All subsequent experimental drug responses were normalized to the KPS response. Bladder measurements were conducted in a similar manner as trachea with identical solutions. The bladder was excised and formed into a ring by cutting anterior and posterior portions before mounting on metal wires for force measurements. For the aorta preparation, the ascending thoracic aorta was excised and cut into 2–3 mm sections before mounting on wires for force measurements.
# SK potassium channels = settings: cited from earlier work
# CNG1 = tested on: CNG1; parameters: method as in Rosenbaum et al., 2004; settings: ref Rosenbaum et al., 2004; read-out: IC50, block of CNG1 channels; cited from earlier work
# CNG2 = tested on: CNG2; parameters: method as in Rosenbaum et al., 2004; settings: ref Rosenbaum et al., 2004; read-out: IC50, block of CNG2 channels; cited from earlier work
# mouse = tested on: mouse; parameters: method as in Gamboa-Vujicic et al., 1993; settings: ref Gamboa-Vujicic et al., 1993, cited from earlier work
# [2] = 5 μM antagonist, 0.5 μM carbachol, 0 = none, 1 = complete inhibition
compound,measurement,setting,value
"Cl.c1ccc2c(c1)CCC[C@H]2Nc1nc2ccccc2[nH]1 [NS8593, N-[(1R)-1,2,3,4-Tetrahydro-1-naphthalenyl]-1H-benzimidazol-2-amine hydrochloride]",IC50,[1],83 µM
same,"Hill slope of inhibition curve, M3 receptor",[1]; 0.5 μM carbachol,1.7 ± 0.35
same,Effect on M3 carbachol response,"[1]; 10 μM antagonist, 0.5 μM carbachol",undetectable
same,Fractional inhibition of second carbachol response,"[1]; 100 μM antagonist, 0.5 μM carbachol",0.60 ± 0.03
same,IC50,mouse trachea; 0.5 μM carbachol,31.5 ± 2 µM
same,Relaxation of precontracted trachea,"mouse trachea; 76.8 μM (highest concentration), 0.5 μM carbachol",complete relaxation
same,IC50,"mouse trachea; Mus musculus, 0.5 μM carbachol",31 µM
"c1ccc2c(c1)c1cc[n+]2CCCCC[n+]2ccc(c3ccccc32)NCCCCCN1 [UCL 1848, 8,14-Diaza-1,7(1,4)-diquinolinacyclotetradecaphane trifluoroacetate salt]",IC50,[1],1 µM
same,"Hill slope of inhibition curve, M3 receptor",[1]; 0.5 μM carbachol,1.47 ± 0.46
same,Fractional inhibition of second carbachol response,[1]; [2],0.98 ± 0.01
same,IC50,"SK potassium channels; effects on SK-dependent fast-afterhyperpolarizing currents, ref Campos Rosa et al., 1996, Chen et al., 2000, Blank et al., 2004, read-out: IC50, SK potassium channels",0.002 µM
same,IC50,"SK potassium channels; ref Chen et al., 2000, read-out: IC50, block of SK channels",0.0027 µM
CCCCCCCCCCCCC/C=C/[C@@H](O)[C@@H](N)CO [d-erthyro-sphingosine],Relaxation response of trachea,mouse trachea; 8.1 μM,14.9 ± 6.0
"Cc1cc(=N)c2ccccc2n1CCCCCCCCCCn1c(C)cc(=N)c2ccccc21.Cl.Cl [dequalinium chloride, 1-[10-(4-imino-2-methyl-1,4-dihydroquinolin-1-yl)decyl]-2-methyl-1,4-dihydroquinolin-4-imine dihydrochloride]",IC50,[1],0.27 µM
same,"Hill slope of inhibition curve, M3 receptor",[1]; 0.5 μM carbachol,0.90 ± 0.29
same,Fractional inhibition of second carbachol response,[1]; [2],0.99 ± 0.003
same,IC50,"SK potassium channels; ref Castle et al., 1993, Dunn, 1994, read-out: IC50, block of SK potassium channels",1.5 µM
same,IC50,CNG1,0.19 µM
same,IC50,CNG2,2.4 µM
"Cc1cc(N)c2ccccc2[n+]1CCCCCCCCCC[n+]1c(C)cc(N)c2ccccc21.[Cl-].[Cl-] [dequalinium chloride, 1-[10-(4-imino-2-methyl-1,4-dihydroquinolin-1-yl)decyl]-2-methyl-1,4-dihydroquinolin-4-imine dihydrochloride]",LD50,mouse; intraperitoneal administration,18.3 mg/kg
same,LD50,mouse; oral administration,300 mg/kg
CC(Cc1ccc(O)c(O)c1)C(C)Cc1ccc(O)c(O)c1 (stereo not drawn) [nordihydroguaiaretic acid],Relaxation response of trachea,mouse trachea; 25 μM,12.4 ± 8.5
"Apamin: peptide blocker of SK channels (CNCKAPETALCARRCQQH; not fully specified (C-terminus, bridges); cysteine pairing not given here; UniProt P01500 28-45, looked up)",Relaxation of ASM contractions,"mouse trachea; 100 nM, 0.5 μM carbachol",did not relax ASM contractions
same,"Relaxation response of trachea, single dose","mouse trachea; 100 nM, 0.5 μM carbachol",−15 ± 7
